Measured values published in US8541442B2, “Indole derivatives as anticancer agents” (Janssen Pharmaceutica N.V., priority 2009, dated 2013).

Key:
p53 in A2780 cells = experiment: p53 ELISA (preservation of p53 in A2780 cells); format: cell-based, human; conditions: 16 hours treatment; for minimal effective concentration: Homo sapiens, A2780, 16 h, read-out: p53-elisa LAD (lowest dose giving at least 140% of the value for p53 present in the control)
Protocol: The capacity of the present compounds to preserve p53 in A2780 cells was measured with the p53 enzyme linked immunosorbent assay. The p53 assay is a “sandwich” enzyme immunoassay employing two polyclonal antibodies. A polyclonal antibody, specific for the p53 protein, has been immobilized onto the surface of the plastic wells. Any p53 present in the sample to be assayed will bind to the capture antibody. The biotinylated detector polyclonal antibody also recognizes p53 protein, and will bind to any p53, which has been retained by the capture antibody. The detector antibody, in turn, is bond by horseradish peroxidase-conjugated streptavidin. The horseradish peroxidase catalyses the conversion of the chromogenic substrate o-phenylene diamine, the intensity of which is proportional to the amount of p53 protein bond to the plate. The colored reaction product is quantified using a spectrophotometer. Quantitation is achieved by the construction of a standard curve using known concentrations of purified recombinant HIS tagged p53 protein (see example C.1.).
A2780 cells (ATCC) were cultivated in RPMI 1640 supplemented with 10% fetal calf serum (FCS), 2 mM L-glutamine and gentamycin at 37° C. in a humidified incubator with 5% CO2.
A2780 cells were seeded at 20.000 cells per well in a 96 well plate, cultured for 24 hours and treated with compound for 16 hours at 37° C. in a humidified incubator. After incubation, the cells were washed once with phosphate-buffered saline and 30 μl, per well, low salt RIPA buffer (20 mM tris, pH7.0, 0.5 mM EDTA, 1% Nonidet P40, 0.5% DOC, 0.05% SDS, 1 mM PMSF, 1 μg/ml aprotinin and 0.5 μ/ml leupeptin) was added. Plates were placed on ice for 30 minutes to complete the lysis. p53 protein was detected in de lysates by using the sandwich ELISA, described below.
High binding polystyrene EIA/RIA 96 well plates (Costar 9018) were coated with the capture antibody pAb1801 (Abcam ab28-100) at a concentration of 1 μg/ml in coating buffer (0.1 M NaHCO3 pH8.2), 50 μl per well. The antibody was allowed to adhere overnight at 4° C. Coated plates were washed once with phosphate-buffered saline (PBS)/0.05% Tween 20 and 300 μl of blocking buffer (PBS, 1% bovine serum albumins (BSA)) was added, for an incubation period of 2 hours at room temperature. Dilutions of purified recombinant HIS tagged p53 protein, ranging from 3-200 ng/ml, were made in blocking buffer and used as standards.
Plates were washed twice with PBS/0.05% Tween 20 and blocking buffer or standards were added at 80 μl/well. To the standards, 20 μl of lysis buffer was added. The samples were added to the other wells at 20 μl lysate/well. After an overnight incubation at 4° C., plates were washed twice with PBS/0.05% Tween 20. Aliquots of 100 μl secondary polyclonal antibody p53(FL-393) (Tebubio, sc-6243) at a concentration of 1 μg/ml in blocking buffer were added to each well and allowed to adhere for 2 hours at room temperature. Plates were washed three times with PBS/0.05% Tween 20. Detection antibody anti-rabbit HRP (sc-2004, Tebubio) at 0.04 μg/ml in PBS/1% BSA was added and incubated for 1 hour at room temperature. Plates were washed three times with PBS/0.05% Tween 20 and 100 μl of substrate buffer was added (substrate buffer was prepared shortly before use by adding 1 tablet of 10 mg o-phenylene diamine (OPD) from Sigma and 125 μl 3% H2O2 to 25 ml OPD buffer: 35 mM citric acid, 66 mM Na2HPO4, pH5.6). After 5 to 10 minutes, colour reaction was stopped by adding 50 μl stop buffer (1 M H2SO4) per well. The absorbance at dual wavelengths of 490/655 nm was measured using a Biorad micro plate reader and the results were then analyzed.
For each experiment, controls (containing no drug) and a blank incubation (containing no cells or drugs) were run in parallel. The blank value was subtracted from all control and sample values. For each sample, the value of p53 (in absorbance units) was expressed as the percentage of the value for p53 present in the control. […]

[1] = system: A2780 ovarian cancer cells; experiment: Alamar Blue cell proliferation assay, A2780; format: cell-based, human; conditions: 4-day incubation; for IC50: Homo sapiens, A2780, 96 h, read-out: A2780 cell proliferation inhibition pIC50 (converted)
Protocol: The human A2780 ovarian cancer cells were a kind gift from Dr. T. C. Hamilton (Fox Chase Cancer Centre, Pennsylvania, U.S.A.). The cells were cultured in RPMI 1640 medium supplemented with 2 mM L-Glutamine, 50 μg/ml gentamicin and 10% fetal calf serum.
Potassium Phosphate Buffer 0.1 M (PPB) was made as follows: 2.72 gram KH2PO4 and 13.86 gram K2HPO4 were dissolved in 500 ml milli-Q H2O, the pH was adjusted to pH 7.4 and the volume was brought to 1 liter with milli-Q H2O; the buffer was filter sterilised and stored at room temperature. Resazurin stock solution (PPB-A) was prepared fresh by dissolving 45 mg resazurin in 15 ml PBS. 30 mM potassium ferricyanide (PPB-B) was prepared by dissolving 0.987 gram potassium ferricyanide in 100 ml PPB. 30 mM potassium ferrocyanide (PPB-C) was prepared by dissolving 1.266 gram potassium ferrocyanide in 100 ml PPB.
Mixture of PPB-A, PPB-B and PPB-C was prepared by mixing equal volumes of the respective solutions. Resazurin work solution (herein termed “Alamar Blue” solution) was prepared by diluting said mixture 20×(vol/vol) in PPB and filter sterilising; the Alamar Blue solution could be kept at 4° C. for a maximum of 2 weeks.
(§1) For experiments in 384 wells plates the cells were seeded at a density of 5×10^3 cells/ml in Falcon 384-well culture plates (Life Technologies, Merelbeke, Belgium), black with clear bottom, in 45 μl culture medium. Cells were allowed to adhere to plastic for 24 hr. The tested compound was pre-diluted (1/50 in culture medium) and 5 μl pre-diluted compound was added to the wells. Following 4-day incubation, 10 μl of the Alamar Blue solution was added to each well and the cells were further incubated for 5 hrs (A2780) at 37° C. The fluorescence intensity was measured for each well with a Fluorescence plate reader (Fluorskan, Labsystems, 540 nm excitation and 590 nm emission)
(§2) The antiproliferative activity was calculated as percentage of remaining viable cells in treated versus control (untreated cells) conditions. Within an experiment, the result for each experimental condition is the mean of 3 replicate wells. When appropriate, the experiments were repeated to establish full concentration-response curves. When appropriate, IC50-values (concentration of the drug, needed to reduce cell growth to 50% of the control) were computed using probit analysis for graded data (Finney, D. J., Probit Analyses, 2nd Ed. Chapter 10, Graded Responses, Cambridge University Press, Cambridge 1962). Herein the effects of test compounds are expressed as pIC50 (the negative log value of the IC50-value (M)) (see Table 5A).

[2] = system: non-small cell lung cancer cell line H1299; experiment: Alamar Blue cell proliferation assay, H1299; format: cell-based; conditions: for H1299 cell proliferation inhibition pIC50: H1299 cells; for IC50: Homo sapiens, NCI-H1299, H1299 cells, read-out: H1299 cell proliferation inhibition pIC50 (converted)
Protocol: as §1, §2
Compounds were also tested according to the above protocol but using other cell lines: colorectal cancer cell line HCT116, non-small cell lung cancer cell line H1299, human prostate cancer cell line DU145.

Row | Compound | p53-elisa LAD (lowest dose giving at least 140% of the value for p53 present in the control) (p53 in A2780 cells) [µM] | A2780 cell proliferation inhibition pIC50 [1] | H1299 cell proliferation inhibition pIC50 [2] | minimal effective concentration (p53 in A2780 cells) [µM] | IC50 [1] [nM] | IC50 [2] [nM]
1 | COc1cc(Nc2ccnc3c2CCC3O)ccc1NCCc1c[nH]c2c(C(C)(C)O)cccc12 (stereo not shown) [Compound 11] | 0.30 | 6.55 | 5.81 |  |  | 
2 | OCc1cccc2c(CCNc3ccc(Nc4ccnc5c4CCC5O)cc3)c[nH]c12 (stereo not shown) [Compound 6] |  |  |  | 1 | 214 | 9330
3 | C=C(C)c1cccc2c(CCNc3ccc(Nc4ccnc5c4CCC5OC)cc3)c[nH]c12 (stereo not shown) [Compound 7] |  |  |  | 0.3 | 110 | 407
4 | Cc1cc(Nc2ccnc3c2CCC3O)ccc1NCCc1c[nH]c2c(CCO)cccc12 (single isomer, unassigned) [Compound 23] | 3.00 | 6.52 | 5.61 |  |  | 
5 | CC(C)(O)c1cccc2c(CCNc3ccc(Nc4ccnc5c4CCC5(C)O)cc3)c[nH]c12 (single isomer, unassigned) [Compound 30] | 0.10 | 7.04 | 6.02 |  |  | 
6 | Cc1cc(Nc2ccncc2)ccc1NCCc1c[nH]c2c(C(C)(C)O)cccc12 [Compound 2] |  |  |  | 0.1 | 41.7 | 1150
7 | COC1CCc2c(Nc3ccc(NCCc4c[nH]c5c(C(C)(C)O)cccc45)cc3)ccnc21 (single isomer, unassigned) [Compound 25] | 0.10 |  |  |  |  | 
8 | COC1CCc2c(Nc3ccc(NCCc4c[nH]c5c(C(C)(C)O)cccc45)c(C)c3)ccnc21 (single isomer, unassigned) [Compound 29] | 0.03 | 7.14 | 6.67 |  |  | 
9 | Cc1cc(Nc2ccnc3c2CCC3(C)O)ccc1NCCc1c[nH]c2c(C(C)(C)O)cccc12 (single isomer, unassigned) [Compound 26] | 0.10 | 7.11 | 6.27 |  |  | 
10 | COC1CCc2c(Nc3ccc(NCCc4c[nH]c5c(C(C)(C)O)cccc45)cc3)ccnc21 (single isomer, unassigned) [Compound 24] | 0.03 |  |  |  | 66.1 | 234
11 | Cc1cc(Nc2ccnc3c2CCC3O)ccc1NCCc1c[nH]c2c(CCC(C)O)cccc12 (stereo not shown) [Compound 9] |  |  |  | 1 | 141 | 6760
12 | COC1CCc2c(Nc3ccc(NCCc4c[nH]c5c(C(C)O)cccc45)c(C)c3)ccnc21 (stereo not shown) [Compound 16] | 0.30 | 6.87 | 6.73 |  |  | 
13 | Cc1cc(Nc2ccnc3c2CCC3(C)O)ccc1NCCc1c[nH]c2c(C(C)(C)O)cccc12 (single isomer, unassigned) [Compound 27] |  |  |  | 0.1 | 141 | 1020
14 | Cc1cc(Nc2ccnc3c2CCC3=O)ccc1NCCc1c[nH]c2c(C(C)O)cccc12 (stereo not shown) [Compound 4] |  |  |  | 0.1 | 182 | 3720
15 | Cc1cc(Nc2ccnc3c2CCC3(C)O)ccc1NCCc1c[nH]c2c(C(C)O)cccc12 (stereo not shown) [Compound 10] | 1.0 | 6.70 | 5.68 |  |  | 
16 | Cc1cc(Nc2ccnc(CO)c2)ccc1NCCc1c[nH]c2c(C(C)(C)O)cccc12 [Compound 19] | 0.10 | 7.34 | 5.46 |  |  | 
17 | Cc1cc(Nc2ccnc3c2CCC3O)ccc1NCCc1c[nH]c2c(C(C)(C)O)cccc12 (stereo not shown) [Compound 18] | 0.03 | 7.47 | 6.38 |  |  | 
18 | Cc1cc(Nc2ccnc3c2CCC3(C)O)ccc1NCCc1c[nH]c2c(C(C)(C)O)cccc12 (stereo not shown) [Compound 1] |  |  |  | 0.1 | 115 | 871
19 | Cc1cc(Nc2ccnc3c2CCC3O)ccc1NCCc1c[nH]c2c(C(C)(C)O)cccc12 (stereo not shown) [Compound 20] |  |  | 5.72 | 0.03 | 51.3 | 
